This is an account of results in publication PMC7143758, “Highly Substituted Phenol Derivatives with Nitric Oxide Inhibitory Activities from the Deep-Sea-Derived Fungus Trichobotrys effuse FS524” (Marine Drugs, 2020).

In one data set the test system is RAW264.7 cells. Briefly: Cytotoxicity / viability of macrophages (SRB method). It counts as cell-based, mouse. As to conditions: RAW264.7 macrophages. As to the method: (§1) Compounds 1–6 were evaluated for the inhibitory activity of nitric oxide (NO) production in lipopolysaccharide (LPS)-induced RAW 246.7 mouse macrophages. The cells (180 μL) with a density of 5 × 10^5 cells/mL of media on a 96-well plate were put under 37 °C at a 5% CO2 condition. After a 24 h preincubation, the seeded cells were treated with gradient dilutions of 1-6 with a maximum concentration of 100 μM, followed by stimulation with LPS (1 μg/mL) for 24 h. Then 50 μL cell culture supernatant solution was moved to a new plate that contained NO detection Griess A (50 μL) and Griess B (50 μL). Finally, the absorbance was measured at 540 nm. Aminoguanidine was used as a positive control and all data were obtained in triplicate. The viability of RAW264.7 cells was evaluated according to the SRB method simultaneously to exclude the interference of the cytotoxicity of 1–6. The RAW264.7 cells were purchased from the Cell Bank of the Chinese Academy of Sciences.

For data set [1], the system named is NO production in LPS-induced RAW 264.7 macrophages. Briefly: Inhibition of nitric oxide (NO) production in LPS-induced macrophages (Griess). The settings on record: for IC50: LPS (1 μg/mL) 24 h, RAW 264.7 mouse macrophages, Griess, mean ± SD, triplicate; for inhibitory activities against NO production (in words): LPS-induced RAW 264.7 macrophages. The data set is classed as cell-based, mouse. Here is the method:
as §1

Data set [2] can be described thus: Cytotoxicity / viability of macrophages (SRB method). The settings on record: mouse, RAW264.7 macrophage cells, RAW264.7 macrophages. The data set is classed as cell-based, mouse. Here is the method: as §1

SMILES strings stand for the structures. Some results are limits rather than exact numbers.

For `N=C(N)NN` [Aminoguanidine, reference compound], the IC50 was above 200 µM in the data set with RAW264.7 cells and 24.8 ± 0.8 µM in data set [1].
As to `CCC1(O)C(=O)C2=C(CC1O)OC1=C(C(=O)C(O)(CC)C(O)C1)C2c1ccc(O)cc1` (stereo not shown) [Compound 1, Trieffusol A], the melting point lay in the range of 149 to 150 °C. For the same compound, the IC50 at 24 h in data set [2] is above 200 µM. In addition, the IC50 in data set [1] (Mus musculus, RAW264.7, 24 h) is above 200 µM.
On to `CCC1(O)C(=O)C2=C(CC1O)OC1=C(C(=O)C(O)(CC)C(O)C1)C2c1ccc(O)cc1` (stereo not shown) [Compound 2, Trieffusol B], for which the concentration for half-maximal inhibition (IC50) in the data set on RAW264.7 cells was above 200 µM; in data set [1], 108 ± 3 µM.
In data set [2], `CCC1(O)C(=O)C=C(OCCc2ccc(O)cc2)CC1O` (stereo not shown) [Compound 3, Trieffusol C] showed an IC50 at 24 h above 200 µM. In addition, the IC50 in data set [1] is 51.9 ± 1.4 µM; in data set [1] (Mus musculus, RAW264.7, 24 h), 51.9 to 55.9 µM. For the same compound, the “inhibitory activities against NO production (in words)” value in data set [1] is reported as “moderate inhibitory activities”.
For the compound `CCc1c(O)cc2c(c1O)C(=O)CC(C)O2` (stereo not shown) [Compound 4, Trieffusol D], the IC50 at 24 h in data set [2] was above 200 µM. For the same compound, in data set [1], the “inhibitory activities against NO production (in words)” value was “moderate inhibitory activities”. Besides, the IC50 in data set [1] (Mus musculus, RAW264.7, 24 h) was 51.9 to 55.9 µM.
In data set [2], `CCc1c(O)cc2c(c1O)C(=O)C[C@@H](C)O2` [Compound 4a, (+)-Trieffusol D] displayed a 50% inhibitory concentration (IC50) at 24 h above 200 µM. In data set [1] (Mus musculus, RAW264.7, 24 h), the IC50 turned out to be 54.3 ± 2.2 µM.
In data set [2], `CCc1c(O)cc2c(c1O)C(=O)C[C@H](C)O2` [Compound 4b, (−)-Trieffusol D] had an IC50 at 24 h above 200 µM. The IC50 in data set [1] (Mus musculus, RAW264.7, 24 h) is 55.9 ± 1.6 µM.
In data set [2], `C/C=C/C(=O)c1c(OC)cc2c(c1O)CCO2` [Compound 5, Trieffusol E] yielded an IC50 at 24 h above 200 µM. Besides, inhibition in data set [1] (Mus musculus, RAW264.7, 24 h) was half-maximal at 65.5 ± 1.3 µM (IC50).
In data set [2], `CCCc1cc2c(c(O)c1CO)COC2=O` [Compound 6, Trieffusol F] returned an IC50 at 24 h above 200 µM. The IC50 in data set [1] (Mus musculus, RAW264.7, 24 h) was 111 ± 4.6 µM.
